From PubChem BioAssay AID248 (DTP/NCI, 2004)
“And” between values parts separate entries of the source, which are not always exact repeats. Equal entries are not always repeated. Inconclusive results and toxic doses are left out. Rule as the data show it: active = T/C of 150% or more; inactive = T/C below 125%.

System: L1210 leukemia ip in BDF1 mice, survival T/C
Test: NCI In Vivo Anticancer Drug Screen. Data for tumor model L1210 Leukemia (intraperitoneal) in B6D2F1 (BDF1) mice
Details: endpoint: mean survival time, higher = longer survival
Summary of the method: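 Tumor cells were implanted, animals were treated, and survival was followed. The result divides the treated measurement by the vehicle-control measurement.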

[1] = dose: 50.0 mg/kg/injection, schedule: Q01DX009 (ip), vehicle: saline
[2] = dose: 100.0 mg/kg/injection, schedule: Q01DX001 (ip), vehicle: saline
[3] = dose: 100.0 mg/kg/injection, schedule: Q01DX009 (ip), vehicle: Klucel (hydroxypropylcellulose) (HPC)
[4] = dose: 100.0 mg/kg/injection, schedule: Q04DX003 (ip), vehicle: Klucel (hydroxypropylcellulose) (HPC)
[5] = dose: 200.0 mg/kg/injection, schedule: Q01DX009 (ip), vehicle: Klucel (hydroxypropylcellulose) (HPC)
[6] = dose: 400.0 mg/kg/injection, schedule: Q01DX001 (ip), vehicle: saline
[7] = dose: 400.0 mg/kg/injection, schedule: Q01DX009 (ip), vehicle: Klucel (hydroxypropylcellulose) (HPC)
[8] = dose: 400.0 mg/kg/injection, schedule: Q04DX003 (ip), vehicle: Klucel (hydroxypropylcellulose) (HPC)
[9] = dose: 100.0 mg/kg/injection, schedule: Q01DX001 (ip), vehicle: carboxymethylcellulose (CMC)
[10] = dose: 200.0 mg/kg/injection, schedule: Q01DX001 (ip), vehicle: carboxymethylcellulose (CMC)
[11] = dose: 400.0 mg/kg/injection, schedule: Q01DX001 (ip), vehicle: carboxymethylcellulose (CMC)

Measured: T/C

CCCCCCCCCCC[As](=O)(O)O
inactive: dose: 12.5 mg/kg/injection, schedule: Q01DX001 (ip), vehicle: carboxymethylcellulose (CMC) 108 % of control | dose: 25.0 mg/kg/injection, schedule: Q01DX001 (ip), vehicle: carboxymethylcellulose (CMC) 96 % of control | dose: 50.0 mg/kg/injection, schedule: Q01DX001 (ip), vehicle: carboxymethylcellulose (CMC) 104 % of control

CCCOP(OCCC)OCCC
inactive: [1] 93 % of control | dose: 100.0 mg/kg/injection, schedule: Q01DX009 (ip), vehicle: saline 101 % of control | dose: 100.0 mg/kg/injection, schedule: Q04DX003 (ip), vehicle: saline 103 % of control | dose: 200.0 mg/kg/injection, schedule: Q01DX009 (ip), vehicle: saline 98 % of control | dose: 200.0 mg/kg/injection, schedule: Q04DX003 (ip), vehicle: saline 95 % of control

O=NN(CCCl)C(=O)C1CCC(C(=O)N(CCCl)N=O)CC1 (stereo not given)
inactive: dose: 0.25 mg/kg/injection, schedule: Q01DX001 (ip), vehicle: carboxymethylcellulose (CMC) 108 % of control | dose: 0.5 mg/kg/injection, schedule: Q01DX001 (ip), vehicle: carboxymethylcellulose (CMC) 117 % of control | dose: 10.0 mg/kg/injection, schedule: Q01DX001 (ip), vehicle: carboxymethylcellulose (CMC) 124 % of control | dose: 15.0 mg/kg/injection, schedule: Q01DX001 (ip), vehicle: carboxymethylcellulose (CMC) 123 % of control | dose: 30.0 mg/kg/injection, schedule: Q01DX001 (ip), vehicle: carboxymethylcellulose (CMC) 118 % of control | dose: 62.0 mg/kg/injection, schedule: Q01DX001 (ip), vehicle: carboxymethylcellulose (CMC) 87 % of control

S=P(c1ccccc1)(N1CCN(c2ccc(Cl)cc2)CC1)N1CCN(c2ccc(Cl)cc2)CC1
inactive: [2] 88 % of control | [3] 102 % of control | [4] 95 % of control | [5] 91 % of control | [6] 90 % of control | [7] 93 % of control | [8] 92 % of control

CCC[n+]1nc2ccccc2c(=Nc2ccccc2[N+](=O)[O-])[n-]1
inactive: dose: 100.0 mg/kg/injection, schedule: Q01DX001 (ip), vehicle: Klucel (hydroxypropylcellulose) (HPC) 100 % of control | [4] 98 % of control | dose: 200.0 mg/kg/injection, schedule: Q01DX001 (ip), vehicle: Klucel (hydroxypropylcellulose) (HPC) 100 % of control | dose: 200.0 mg/kg/injection, schedule: Q04DX003 (ip), vehicle: Klucel (hydroxypropylcellulose) (HPC) 106 % of control | dose: 400.0 mg/kg/injection, schedule: Q01DX001 (ip), vehicle: Klucel (hydroxypropylcellulose) (HPC) 98 % of control | [8] 101 % of control

COc1ccc(CN2CCCN(Cc3ccc(OC)cc3OC)C2c2cccc(F)c2)c(OC)c1
inactive: dose: 50.0 mg/kg/injection, schedule: Q01DX001 (ip), vehicle: saline 89 % of control | [2] 89 % of control | dose: 200.0 mg/kg/injection, schedule: Q01DX001 (ip), vehicle: saline 100 % of control | [6] 91 % of control

NC(=O)OCCI
inactive: [1] 105 % of control | dose: 50.0 mg/kg/injection, schedule: Q04DX003 (ip), vehicle: other 101 % of control | dose: 100.0 mg/kg/injection, schedule: Q04DX003 (ip), vehicle: other 121 % of control | dose: 200.0 mg/kg/injection, schedule: Q04DX003 (ip), vehicle: other 119 % of control

CCOC(=O)CC(CC(=O)OCC)NC(=O)c1ccc(N(C)Cc2ccccc2)cc1
inactive: [9] 107 % of control | [10] 108 % of control | [11] 105 % of control

CCCCN(C)N=Nc1c[nH]c(=O)[nH]c1=O
inactive: dose: 75.0 mg/kg/injection, schedule: Q01DX001 (ip), vehicle: other 95 % of control

O=C1OC(=O)C2C3CC(C4OC34)C12 (stereo not given)
inactive: dose: 100.0 mg/kg/injection, schedule: Q04DX003 (ip), vehicle: saline with Tween-80 95 % of control | dose: 200.0 mg/kg/injection, schedule: Q04DX003 (ip), vehicle: saline with Tween-80 100 % of control | dose: 400.0 mg/kg/injection, schedule: Q04DX003 (ip), vehicle: saline with Tween-80 94 % of control

C=CCc1ccc(OC(=O)Nc2cccc(Cl)c2)c(OC)c1
inactive: dose: 100.0 mg/kg/injection, schedule: Q01DX009 (ip), vehicle: carboxymethylcellulose (CMC) 98 % of control and 102 % of control | dose: 100.0 mg/kg/injection, schedule: Q04DX002 (ip), vehicle: Klucel (hydroxypropylcellulose) (HPC) 95 % of control | dose: 100.0 mg/kg/injection, schedule: Q04DX002 (ip), vehicle: carboxymethylcellulose (CMC) 102 % of control | dose: 100.0 mg/kg/injection, schedule: Q04DX003 (ip), vehicle: carboxymethylcellulose (CMC) 101 % of control | dose: 200.0 mg/kg/injection, schedule: Q01DX009 (ip), vehicle: carboxymethylcellulose (CMC) 100 % of control and 92 % of control | dose: 200.0 mg/kg/injection, schedule: Q04DX002 (ip), vehicle: Klucel (hydroxypropylcellulose) (HPC) 92 % of control | dose: 200.0 mg/kg/injection, schedule: Q04DX002 (ip), vehicle: carboxymethylcellulose (CMC) 112 % of control | dose: 200.0 mg/kg/injection, schedule: Q04DX003 (ip), vehicle: carboxymethylcellulose (CMC) 95 % of control | dose: 400.0 mg/kg/injection, schedule: Q01DX009 (ip), vehicle: carboxymethylcellulose (CMC) 95 % of control and 98 % of control | dose: 400.0 mg/kg/injection, schedule: Q04DX002 (ip), vehicle: Klucel (hydroxypropylcellulose) (HPC) 95 % of control | dose: 400.0 mg/kg/injection, schedule: Q04DX002 (ip), vehicle: carboxymethylcellulose (CMC) 105 % of control | dose: 400.0 mg/kg/injection, schedule: Q04DX003 (ip), vehicle: carboxymethylcellulose (CMC) 100 % of control

CCCCC(CCCC)C(=O)O
inactive: [9] 111 % of control | [10] 92 % of control | [11] 101 % of control

O=C1c2cccc3cccc(c23)C(=O)N1Cc1ccco1
inactive: [3] 94 % of control | [5] 89 % of control | [7] 93 % of control

CC(=O)[O][Hg][c]1c(C)c(C)cc(C)c1C
inactive: dose: 6.25 mg/kg/injection, schedule: Q04DX003 (ip), vehicle: saline with Tween-80 93 % of control | dose: 12.5 mg/kg/injection, schedule: Q04DX003 (ip), vehicle: saline with Tween-80 87 % of control | dose: 25.0 mg/kg/injection, schedule: Q04DX003 (ip), vehicle: saline with Tween-80 95 % of control

COC(=O)CC(C(=O)OC)N1CC1 (stereo not given)
inactive: dose: 75.0 mg/kg/injection, schedule: Q01DX001 (ip), vehicle: carboxymethylcellulose (CMC) 101 % of control

N=C(OC1CCCCC1)N(Cc1ccccc1)Cc1ccccc1
inactive: dose: 44.0 mg/kg/injection, schedule: Q01DX Z (ip), vehicle: methylcellulose (MC) 104 % of control | dose: 66.0 mg/kg/injection, schedule: Q01DX Z (ip), vehicle: methylcellulose (MC) 104 % of control | dose: 100.0 mg/kg/injection, schedule: Q01DX Z (ip), vehicle: methylcellulose (MC) 117 % of control

COC(=O)/C(=C\c1ccccc1)CN1CCCCC1
inactive: dose: 25.0 mg/kg/injection, schedule: Q01DX001 (ip), vehicle: saline with Tween-80 101 % of control | dose: 50.0 mg/kg/injection, schedule: Q01DX001 (ip), vehicle: saline with Tween-80 93 % of control | dose: 100.0 mg/kg/injection, schedule: Q01DX001 (ip), vehicle: saline with Tween-80 104 % of control
